Laboratory results reported in US12209102B2, “Heterocyclic compounds and uses thereof” (Kumquat Biosciences Inc., priority 2022, dated 2025).

Columns and labels:
[1] = molecular target: T1, K-Ras G12D (Homo sapiens, UniProt P01116, G12D); experiment: HTRF resonance energy transfer assay, K-Ras G12D / SOS1 interaction; type: biochemical; conditions: HTRF assay of Example 5; read-out: IC50 against K-Ras G12D
T1 construct: made in house; host or cells: E. coli BL21 (DE3)
How it was run: (§1)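 Buffer about 5 mM HEPES pH 7.4 with ~150 mM NaCl, ~1 mM DTT, 0.05% BSA, 0.0025% (v/v) Igepal. Protein constructs used at molarity matching the IC50 range studied (e.g. ~500 nM). FRET between tagged K-Ras and hSOS1 measured after short incubation.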

[2] = molecular target: T2, K-Ras G12S (Homo sapiens, UniProt P01116, G12S); experiment: HTRF resonance energy transfer assay, K-Ras G12S / SOS1 interaction; type: biochemical; conditions: HTRF assay of Example 5; read-out: IC50 against K-Ras G12S
T2 construct: made in house; host or cells: E. coli BL21 (DE3)
T2 sequence (P01116 1-188 isoform P01116-2 G12S): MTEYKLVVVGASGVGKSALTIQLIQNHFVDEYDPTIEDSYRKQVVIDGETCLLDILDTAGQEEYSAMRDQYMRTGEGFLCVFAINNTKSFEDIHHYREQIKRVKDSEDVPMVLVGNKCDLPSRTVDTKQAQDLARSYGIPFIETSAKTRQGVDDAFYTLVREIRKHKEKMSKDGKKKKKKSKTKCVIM
How it was run: as §1

[3] = molecular target: T3, K-Ras G12V (Homo sapiens, UniProt P01116, G12V); experiment: HTRF resonance energy transfer assay, K-Ras G12V / SOS1 interaction; type: biochemical; conditions: HTRF assay of Example 5; read-out: IC50 against K-Ras G12V
T3 construct: made in house; host or cells: E. coli BL21 (DE3)
T3 sequence (P01116 1-188 isoform P01116-2 G12V): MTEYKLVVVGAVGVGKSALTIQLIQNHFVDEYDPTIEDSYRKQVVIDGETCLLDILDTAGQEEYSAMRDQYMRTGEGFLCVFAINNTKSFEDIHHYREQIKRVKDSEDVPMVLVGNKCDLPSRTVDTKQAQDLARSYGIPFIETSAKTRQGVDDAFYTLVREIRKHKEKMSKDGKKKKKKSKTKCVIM
How it was run: as §1

[4] = molecular target: T4, K-Ras WT (Homo sapiens, UniProt P01116); experiment: HTRF resonance energy transfer assay, K-Ras WT / SOS1 interaction; type: biochemical; conditions: HTRF assay of Example 5; read-out: IC50 against K-Ras WT
T4 construct: made in house; host or cells: E. coli BL21 (DE3)
T4 sequence (P01116 1-188 isoform P01116-2): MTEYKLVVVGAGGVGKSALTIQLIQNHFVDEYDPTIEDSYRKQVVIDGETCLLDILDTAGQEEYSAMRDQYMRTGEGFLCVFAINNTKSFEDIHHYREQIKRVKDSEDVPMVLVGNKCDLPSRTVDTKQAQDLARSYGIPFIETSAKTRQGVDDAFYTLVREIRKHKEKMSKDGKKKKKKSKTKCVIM
How it was run: as §1

[5] = tested on: GP2D cells; experiment: Ras cellular assay, growth of cells with K-Ras G12D mutation (CellTiter-Glo); type: cell-based; conditions: cell growth, Example 9, G12D mutation, read-out: IC50 against GP2D cells
[6] = tested on: A549 cells; experiment: Ras cellular assay, growth of cells with K-Ras G12S mutation (CellTiter-Glo); type: cell-based; conditions: Homo sapiens, cell growth, Example 9, G12S mutation, read-out: IC50 against A549 cells
How it was run: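 Growth inhibition IC50 values come from four-parameter fits of CellTiter-Glo luminescence, read about 6 days after compound addition. G12S-mutant A549 cells (e.g. 800/well, RPMI-1640 + 10% heat-inactivated FBS) were plated in tissue-culture-treated or ultra-low-attachment 384-well format. Dosing began the following day with serial dilutions, e.g. 10 points, 3-fold.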

[7] = tested on: SW620 cells; experiment: Ras cellular assay, growth of cells with K-Ras G12V mutation (CellTiter-Glo); type: cell-based; conditions: Homo sapiens, SW-620; cell growth, Example 9, G12V mutation; read-out: IC50 against SW620 cells
How it was run: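 IC50 values came from a four-parameter fit of CellTiter-Glo viability, read roughly 6 days after dosing with e.g. a 10-point threefold dilution series. G12V-mutant SW620 cells (e.g. 800 per well) had been plated the previous day in RPMI-1640/10% heat-inactivated FBS, on tissue culture-treated or ultra-low attachment plates.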

T1 sequence (P01116 1-188 isoform P01116-2 G12D): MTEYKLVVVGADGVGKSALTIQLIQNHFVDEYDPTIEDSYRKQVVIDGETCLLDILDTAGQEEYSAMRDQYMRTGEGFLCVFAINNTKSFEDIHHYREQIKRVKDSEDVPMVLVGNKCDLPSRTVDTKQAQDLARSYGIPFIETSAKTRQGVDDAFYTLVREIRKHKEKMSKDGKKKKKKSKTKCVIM

| IC50 [1] [nM] | IC50 [2] [nM] | IC50 [3] [nM] | IC50 [4] [nM] | IC50 [6] [nM] | IC50 [7] [nM] | Compound | IC50 [5] [nM] |
| --- | --- | --- | --- | --- | --- | --- | --- |
| < 100 | < 100 | < 100 | < 100 | < 5000 | < 5000 | N#Cc1c(N)sc2c(F)ccc(-c3c(Cl)c4c5c(nc(OC[C@@]67CCCN6C[C@H](F)C7)nc5c3F)N(C3CCC(C(F)F)C3)CCO4)c12 (stereo partly drawn) [Compound 718, 2-amino-4-(8-chloro-4-(3-(difluoromethyl)cyclopentyl)-10-fluoro-2-(((2R,7aS)-2-fluorotetrahydro-1H-pyrrolizin-7a(5H)-yl)methoxy)-5,6-dihydro-4H-[1,4]oxazepino[5,6,7-de]quinazolin-9-yl)-7-fluorobenzo[b]thiophene-3-carbonitrile] | < 500 |
| < 100 | < 100 | < 100 | < 100 | < 5000 | < 5000 | C[C@H](Oc1nc2c3c(c(Cl)c(-c4ccc(F)c5sc(N)c(C#N)c45)c(F)c3n1)OCCN2[C@@H]1CCN(C=O)C1)[C@@H]1CCCN1C [Compound 621, 2-amino-4-(8-chloro-10-fluoro-4-((R)-1-formylpyrrolidin-3-yl)-2-((S)-1-((S)-1-methylpyrrolidin-2-yl)ethoxy)-5,6-dihydro-4H-[1,4]oxazepino[5,6,7-de]quinazolin-9-yl)-7-fluorobenzo[b]thiophene-3-carbonitrile] | < 500 |
| < 100 | < 100 | < 100 | < 100 | < 5000 | < 5000 | N#Cc1c(N)sc2c(F)ccc(-c3c(Cl)c4c5c(nc(OC[C@@]67CCCN6C[C@H](F)C7)nc5c3F)N(C3CCN(C(=O)[C@H]5CCOC5)C3)CCO4)c12 (stereo partly drawn) [Compound 736, 2-amino-4-(8-chloro-10-fluoro-2-(((2R,7aS)-2-fluorotetrahydro-1H-pyrrolizin-7a(5H)-yl)methoxy)-4-(1-((S)-tetrahydrofuran-3-carbonyl)pyrrolidin-3-yl)-5,6-dihydro-4H-[1,4]oxazepino[5,6,7-de]quinazolin-9-yl)-7-fluorobenzo[b]thiophene-3-carbonitrile] | < 500 |
| < 100 | < 100 | < 100 | < 100 | < 5000 | < 5000 | N#Cc1c(N)sc2c(F)ccc(-c3c(Cl)c4c5c(nc(OC[C@@]67CCCN6C[C@H](F)C7)nc5c3F)N(C3CCN(C(=O)[C@@H]5CCCO5)C3)CCO4)c12 (stereo partly drawn) [Compound 984, 2-amino-4-(8-chloro-10-fluoro-2-(((2R,7aS)-2-fluorotetrahydro-1H-pyrrolizin-7a(5H)-yl)methoxy)-4-(1-((S)-tetrahydrofuran-2-carbonyl)pyrrolidin-3-yl)-5,6-dihydro-4H-[1,4]oxazepino[5,6,7-de]quinazolin-9-yl)-7-fluorobenzo[b]thiophene-3-carbonitrile] | < 500 |
| < 100 | < 100 | < 100 | < 100 | < 5000 | < 5000 | N#Cc1c(N)sc2c(F)ccc(-c3c(Cl)c4c5c(nc(OC[C@@]67CCCN6C[C@H](F)C7)nc5c3F)N(C3CCN(C(=O)COC5CC5)C3)CCO4)c12 (stereo partly drawn) [Compound 812, 2-amino-4-(8-chloro-4-(1-(2-cyclopropoxyacetyl)pyrrolidin-3-yl)-10-fluoro-2-(((2R,7aS)-2-fluorotetrahydro-1H-pyrrolizin-7a(5H)-yl)methoxy)-5,6-dihydro-4H-[1,4]oxazepino[5,6,7-de]quinazolin-9-yl)-7-fluorobenzo[b]thiophene-3-carbonitrile] | < 500 |
| < 100 | < 100 | < 100 | < 100 | < 5000 | < 5000 | CO[C@@H](C)C(=O)N1CCC(N2CCOc3c(Cl)c(-c4ccc(F)c5sc(N)c(C#N)c45)c(F)c4nc(OC[C@@]56CCCN5C[C@H](F)C6)nc2c34)C1 (stereo partly drawn) [Compound 742, 2-amino-4-(8-chloro-10-fluoro-2-(((2R,7aS)-2-fluorotetrahydro-1H-pyrrolizin-7a(5H)-yl)methoxy)-4-(1-((S)-2-methoxypropanoyl)pyrrolidin-3-yl)-5,6-dihydro-4H-[1,4]oxazepino[5,6,7-de]quinazolin-9-yl)-7-fluorobenzo[b]thiophene-3-carbonitrile] | < 500 |
| < 100 | < 100 | < 100 | < 100 | < 5000 | < 5000 | N#Cc1c(N)sc2c(F)ccc(-c3c(Cl)c4c5c(nc(OC[C@@]67CCCN6C[C@H](F)C7)nc5c3F)N(C3CCN(C(=O)CC5CCOCC5)C3)CCO4)c12 (stereo partly drawn) [Compound 869, 2-amino-4-(8-chloro-10-fluoro-2-(((2R,7aS)-2-fluorotetrahydro-1H-pyrrolizin-7a(5H)-yl)methoxy)-4-(1-(2-(tetrahydro-2H-pyran-4-yl)acetyl)pyrrolidin-3-yl)-5,6-dihydro-4H-[1,4]oxazepino[5,6,7-de]quinazolin-9-yl)-7-fluorobenzo[b]thiophene-3-carbonitrile] | < 500 |
